In experiment [1] the target is T1, human CB1 receptor (Homo sapiens, UniProt P21554).
T1 construct: purchased Perkin-Elmer
The experiment can be described thus: hCB1 receptor binding (3H-CP55,940 displacement). Here is the method: hCB1 and hCB2 Receptor Binding
Membranes are produced from either HEK 293S cells expressing the cloned human CB1 receptor (hCB1: clone #24) or Sf9 cells, using the baculovirus system, expressing the cloned human CB2 receptor (hCB2). The membranes are thawed at 37° C., passed 3 times through a 23-gauge blunt-end needle, diluted in the cannabinoid binding buffer (50 mM Tris, 2.5 mM EDTA, 5 mM MgCl2, and 0.5 mg/mL BSA fatty acid free, pH 7.4) and aliquots containing the appropriate amount of protein are distributed in 96-well plates. The IC50 of the compounds of the present invention at hCB1 and hCB2 are evaluated from 10-point dose-response curves done with ^3H-CP55,940 at 20000 to 25000 dpm per well (0.17-0.21 nM) in a final volume of 300 μl. The total and non-specific binding are determined in the absence and presence of 0.2 μM of HU210 respectively. The plates are vortexed and incubated for 60 minutes at room temperature, filtered through Unifilters GF/B (pre-soaked in 0.1% polyethyleneimine) with the Packard harvester using 3 mL of wash buffer (50 mM Tris, 5 mM MgCl2, 0.5 mg BSA pH 7.0). The filters are dried for 1 hour at 55° C. The radioactivity (cpm) is counted in a TopCount (Packard) after adding 65 μl/well of MS-20 scintillation liquid.
Based on the above assays, the dissociation constant (Ki) for a particular compound of the present invention towards a particular receptor is determined using the following equation: […]
wherein IC50 is the concentration of the compound of the present invention at which 50% displacement has been observed; [rad] is a standard or reference radioactive ligand concentration at that moment; Kd is the dissociation constant of the radioactive ligand towards the particular receptor.

The target in experiment [2] is T1, human CB1 receptor. The experiment can be described thus: hCB1 GTPγS binding. The following applies: for Emax: read-out: Emax hCB1. Type of experiment: biochemical. Here is the method: Cloned human CB1 receptor from Perkin-Elmer (hCB1) are thawed at 37° C., passed 3 times through a 23-gauge blunt-end needle and diluted in the GTPγS binding buffer (50 mM Hepes, 20 mM NaOH, 100 mM NaCl, 1 mM EDTA, 5 mM MgCl2, pH 7.4, 0.1% BSA). […] The basal and maximal stimulated binding is determined in absence and presence of 10 μM Win 55,212-2. The membranes are pre-incubated for 5 minutes with 112.5 μM GDP prior to distribution in plates (30 μM GDP final). The plates are vortexed and incubated for 60 minutes at room temperature, filtered on Unifilters GF/B (pre-soaked in water) with the Packard harvester using 3 ml of wash buffer (50 mM Tris, 5 mM MgCl2, 50 mM NaCl, pH 7.0). The filters are dried for 1 hour at 55° C. The radioactivity (cpm) is counted in a TopCount (Packard) after adding 65 μl/well of MS-20 scintillation liquid.
A general note: Binding of GTPγS marks nucleotide exchange on a G protein.

Where two headings read alike, the source gives them in different places.

As usually defined, the Ki is a measure of affinity in units of concentration, obtained from inhibition or displacement. What is called EC50 is the midpoint of the concentration-response curve. As a reminder, the Emax is the greatest response seen or fitted, relative to the assay's reference.

T1 sequence (P21554 whole entry): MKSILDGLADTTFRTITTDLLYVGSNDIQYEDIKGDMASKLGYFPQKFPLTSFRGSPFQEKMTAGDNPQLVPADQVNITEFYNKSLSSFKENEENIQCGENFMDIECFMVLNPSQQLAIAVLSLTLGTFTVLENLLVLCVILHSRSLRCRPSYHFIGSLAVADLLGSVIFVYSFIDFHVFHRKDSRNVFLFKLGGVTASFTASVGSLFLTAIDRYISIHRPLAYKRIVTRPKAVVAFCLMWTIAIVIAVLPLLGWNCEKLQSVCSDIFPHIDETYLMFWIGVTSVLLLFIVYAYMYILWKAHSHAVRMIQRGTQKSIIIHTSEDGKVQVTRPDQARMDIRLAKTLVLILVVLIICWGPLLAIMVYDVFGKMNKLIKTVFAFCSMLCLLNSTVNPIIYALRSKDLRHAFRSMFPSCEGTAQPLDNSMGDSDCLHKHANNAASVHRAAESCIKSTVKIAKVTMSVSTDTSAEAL

In experiment [1], `O=C(NCC1CCC1)c1ncccc1NC(=O)c1ccc(Cn2cc(F)nn2)c2ccccc12` [Example 50, N-(Cyclobutylmethyl)-3-({4-[(4-fluoro-1H-1,2,3-triazol-1-yl)methyl]-1-naphthoyl}amino)pyridine-2-carboxamide] yielded an inhibition constant (Ki) of 51 nM. In experiment [2], the EC50 came out at 46 nM and the Emax worked out at 48%.
The matching figures for `CC(C)OC(=O)COc1ccc(NC(=O)c2ccc(Cn3ccnn3)c3ccccc23)c(C(=O)NCC2CCC2)n1` [Example 29, {6-(Cyclobutylmethyl-carbamoyl)-5-[(4-[1,2,3]triazol-1-ylmethyl-naphthalene-1-carbonyl)-amino]-pyridin-2-yloxy}-acetic Acid Isopropyl Ester]: 5.4 nM, 7.1 nM and 80%.
On the same counts, the results for `O=C(COc1ccc(NC(=O)c2ccc(Cn3ccnn3)c3ccccc23)c(C(=O)NCC2CCC2)n1)NCCO` [Example 7, N-(cyclobutylmethyl)-6-{2-[(2-hydroxyethyl)amino]-2-oxoethoxy}-3-{[4-(1H-1,2,3-triazol-1-ylmethyl)-1-naphthoyl]amino}pyridine-2-carboxamide] are 59 nM, 120 nM and 110%.
As for `O=C(NCC1CCOCC1)c1ncccc1NC(=O)c1csc2ccccc12` [Example 56, 3-[(1-benzothien-3-yl-carbonyl)amino]-N-(tetrahydro-2H-pyran-4-ylmethyl)pyridine-2-carboxamide], the Ki in experiment [1] (membranes of HEK 293S cells expressing cloned human CB1 receptor, Ki=IC50/(1+[rad]/Kd), read-out: Ki hCB1) turned out to be 260 nM. For the same compound, the 50% effective concentration (EC50) in experiment [2] (GTPγ35S binding, cloned human CB1 receptor membranes, read-out: EC50 hCB1) was 380 nM. Moreover, the Emax in experiment [2] stood at 88%.
`O=C(COc1ccc(NC(=O)c2ccc(Cn3ccnn3)c3ccccc23)c(C(=O)NCC2CCC2)n1)NCc1ccccc1` [Example 27, 6-(Benzylcarbamoyl-methoxy)-3-[(4-[1,2,3]triazol-1-ylmethyl-naphthalene-1-carbonyl)-amino]-pyridine-2-carboxylic Acid Cyclobutylmethyl-amide]: in experiment [1], the Ki came to 35 nM. For the same compound, in experiment [2], the midpoint of the response, the EC50, lay at 42 nM and the maximal effect (Emax) was 94%.
The matching figures for `CN(C)C(=O)COc1ccc(NC(=O)c2ccc(Cn3ccnn3)c3ccccc23)c(C(=O)NCC2CCC2)n1` [Example 6, N-(cyclobutylmethyl)-6-[2-(dimethylamino)-2-oxoethoxy]-3-{[4-(1H-1,2,3-triazol-1-ylmethyl)-1-naphthoyl]amino}pyridine-2-carboxamide]: 52 nM, 80 nM and 88%.
As to `O=C(NCC1CCC1)c1nc(OCc2ccccn2)ccc1NC(=O)c1ccc(Cn2ccnn2)c2ccccc12` [Example 14, N-(cyclobutylmethyl)-6-(pyridin-2-ylmethoxy)-3-{[4-(1H-1,2,3-triazol-1-ylmethyl)-1-naphthoyl]amino}pyridine-2-carboxamide], the Ki in experiment [1] came out at 3.2 nM. In addition, in experiment [2], a half-maximal effect (EC50) was put at 7.3 nM and the maximal response (Emax) turned out to be 110%.
`O=C(NCC1CCOCC1)c1nc(OS(=O)(=O)CCC(F)(F)F)cnc1NC(=O)c1ccc(Cn2ccnn2)c2ccccc12` [Example 44, 6-[(Tetrahydro-2H-pyran-4-ylmethyl)carbamoyl]-5-{[4-(1H-1,2,3-triazol-1-ylmethyl)-1-naphthoyl]amino}pyrazin-2-yl 3,3,3-trifluoropropane-1-sulfonate] showed an inhibition constant (Ki) in experiment [1] of 270 nM. In experiment [2], a half-maximal response (EC50) required 240 nM and the maximal effect (Emax) is 140%.
The matching figures for `COCc1ccc(C(=O)Nc2ccc(OCCO)nc2C(=O)NCC2CCOCC2)c2ccccc12` [Example 35, 6-(2-Hydroxy-ethoxy)-3-[(4-methoxymethyl-naphthalene-1-carbonyl)-amino]-pyridine-2-carboxylic Acid (tetrahydro-pyran-4-ylmethyl)-amide]: 53 nM, 99 nM and 93%.
As for `COCc1cnnn1Cc1ccc(C(=O)Nc2cccnc2C(=O)NCC2CCC2)c2ccccc12` [Example 15, N-(cyclobutylmethyl)-3-[(4-{[5-(methoxymethyl)-1H-1,2,3-triazol-1-yl]methyl}-1-naphthoyl)amino]pyridine-2-carboxamide], in experiment [1], affinity was put at a Ki of 13 nM. In addition, in experiment [2], the concentration giving a half-maximal response (EC50) is 22 nM and the Emax came to 120%.

The values are drawn from US20090181968A1, “Novel 3-Bicyclocarbonylaminopyridine-2-Carboxamides or 3-Bicyclocarbonylaminopyrazine-2-Carboxamides” (priority 2005, published 2009).
